Columns and labels:
[1] = target: T1, C-C chemokine receptor type 1 (Homo sapiens, UniProt P32246); assay: Displacement of [125I]MIP-1alpha from human recombinant CCR1 expressed in HEK293 cells after 1.5 hrs; assay type: cell-based
T1 sequence (P32246 whole entry): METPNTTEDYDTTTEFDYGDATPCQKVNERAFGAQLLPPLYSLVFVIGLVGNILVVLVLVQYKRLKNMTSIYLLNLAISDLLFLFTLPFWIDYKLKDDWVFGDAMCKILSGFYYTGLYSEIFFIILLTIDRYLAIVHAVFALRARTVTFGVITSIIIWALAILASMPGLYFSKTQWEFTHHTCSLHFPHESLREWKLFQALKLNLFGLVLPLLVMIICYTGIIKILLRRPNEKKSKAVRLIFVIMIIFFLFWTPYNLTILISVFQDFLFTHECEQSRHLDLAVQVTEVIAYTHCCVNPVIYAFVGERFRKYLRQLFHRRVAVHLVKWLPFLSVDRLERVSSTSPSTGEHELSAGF

in vitro [2] = conditions: human
in vitro [3] = conditions: human, Caco-2
in vitro [4] = conditions: human, hepatocytes
in vitro [5] = conditions: rat, hepatocytes
[6] = Clearance in rat liver microsomes; assay type: ADME, Microsome; conditions: read-out: CLH

Structure (SMILES)	IC50 [1] [nM]	microsomal CLint (in vitro [2]; liver microsomes) [µL/min/mg]	Papp (in vitro [3]) [×10⁻⁶ cm/s]	hepatocyte CLint (in vitro [4]) [µL/min/1e6 cells]	hepatocyte CLint (in vitro [5]) [µL/min/1e6 cells]	microsomal CLint [6] [µL/min/mg]	microsomal CLint (in vitro [2]; microsomes) [µL/min/mg]
COc1ccc(NC(C)=O)c(OC[C@@H](O)CN2CCC3(CC2)Cc2cc(Cl)ccc2O3)c1	0.9	55	24.4	–	–	–	–
CC(=O)Nc1ccc(F)cc1OC[C@@H](O)CN1CCC2(CC1)Cc1cc(Cl)ccc1O2	0.64	13.5	17	6.1	17.5	–	–
CC(=O)Nc1ccc(O)cc1OC[C@@H](O)CN1CCC2(CC1)Cc1cc(Cl)ccc1O2	–	< 10	–	< 3	25.7	–	–
COc1ccc(NC(C)=O)c(OC[C@@H](N)CN2CCC3(CC2)Cc2cc(F)ccc2O3)c1	9	17.4	–	3.5	–	–	–
COc1ccc(NC(C)=O)c(OC[C@@H](N)CN2CCC3(CC2)Cc2ccccc2O3)c1	32	18.8	–	–	–	–	–
CC(=O)Nc1ccc(O)cc1OC[C@@H](N)CN1CCC2(CC1)Cc1cc(Cl)ccc1O2	0.79	< 10	2.7	< 3	4.2	< 10	–
CC(=O)Nc1ccc(O)cc1OC[C@@H](N)CN1CCC2(CC1)Cc1cc(F)ccc1O2	1.4	< 10	2.7	< 3	< 3	< 10	–

Results, then the compound that gave them:

IC50 [1] [nM]	microsomal CLint (in vitro [2]; liver microsomes) [µL/min/mg]	Papp (in vitro [3]) [×10⁻⁶ cm/s]	hepatocyte CLint (in vitro [4]) [µL/min/1e6 cells]	hepatocyte CLint (in vitro [5]) [µL/min/1e6 cells]	microsomal CLint [6] [µL/min/mg]	microsomal CLint (in vitro [2]; microsomes) [µL/min/mg]	Structure (SMILES)
0.96	< 17	26	2.5	26	–	–	CC(=O)Nc1ccccc1OC[C@@H](O)CN1CCC2(CC1)Cc1cc(Cl)ccc1O2
0.36	17.8	18	9.3	12	29	–	CC(=O)Nc1ccc(F)cc1OC[C@@H](O)CN1CCC2(CC1)Cc1cc(F)ccc1O2
0.96	25.5	16.5	11	–	–	–	CC(=O)Nc1ccccc1OC[C@@H](O)CN1CCC2(CC1)Cc1cc(F)ccc1O2
–	–	6.6	< 3.6	17.6	–	< 10	CC(=O)Nc1ccc(O)cc1OC[C@@H](O)CN1CCC2(CC1)Cc1cc(F)ccc1O2
6	12.6	–	–	–	–	–	COc1ccc(NC(C)=O)c(OC[C@@H](N)CN2CCC3(CC2)Cc2cc(Cl)ccc2O3)c1
18	< 10	1.6	< 3	6.6	14	–	CC(=O)Nc1ccc(O)cc1OC[C@@H](N)CN1CCC2(CC1)Cc1ccccc1O2

Reference: ChEMBL document CHEMBL2331377, “Spirocyclic compounds, potent CCR1 antagonists” (Bioorg Med Chem Lett, 2013)
